# Patent US6716866B2, “Aryl-benzimidazole compounds having antiinfective activity” (GeneSoft Pharmaceuticals, Inc., priority 2001, dated 2004)
# Legend:
# [1] = system: B. cereus ATCC 11778; assay: NCCLS broth microdilution MIC, B. cereus ATCC 11778; type: cell-based; settings: organism A = B. cereus ATCC 11778
# Description: (§1) Compounds according to this invention were screened for their in vitro activities against selected species of bacteria and fungi. The minimal inhibition concentration (MIC) of these compounds was determined using the National Committee for Clinical Laboratory Standards (NCCLS) broth microdilution assay in microtiter plates, as set forth in: (1) the guidelines of the National Committee for Clinical Laboratory Standards (NCCLS) Document M7-A4 (NCCLS, 1997); (2) the guidelines of the National Committee for Clinical Laboratory Standards (NCCLS) Document M11-A4 (NCCLS, 1997); and (3) the guidelines and reference method of the National Committee for Clinical Laboratory Standards (NCCLS) Document M27-T (NCCLS, 1995). For antifungal essays, the method recommended in Murray, PR., 1995 Manual of Clinical Microbiology (ASM Press, Washington, D.C.), was employed.
# [2] = system: C. albicans ATCC 38247; assay: NCCLS broth microdilution MIC (antifungal), C. albicans ATCC 38247; type: cell-based; settings: organism B = C. albicans ATCC 38247
# Description: as §1
# [3] = system: E. coli ATCC 25922; assay: NCCLS broth microdilution MIC, E. coli ATCC 25922; type: cell-based; settings: organism C = E. coli ATCC 25922
# Description: as §1
# [4] = system: E. faecalis ATCC 29212; assay: NCCLS broth microdilution MIC, E. faecalis ATCC 29212; type: cell-based; settings: organism D = E. faecalis ATCC 29212
# Description: as §1
# [5] = system: S. pneumoniae ATCC 49619; assay: NCCLS broth microdilution MIC, S. pneumoniae ATCC 49619; type: cell-based; settings: organism F = S. pneumoniae ATCC 49619
# Description: as §1
# [6] = system: S. aureus ATCC 29213; assay: NCCLS broth microdilution MIC, S. aureus ATCC 29213; type: cell-based; settings: organism G = S. aureus ATCC 29213
# Description: as §1
# [7] = system: DNA sequence AGTACT; assay: Quantitative DNase I footprint titration, site AGTACT; type: binding; settings: DNase I footprinting, pH 7.0, 22° C.
# Description: (§2) A number of compounds according to this invention were screened for their ability to bind to three DNA sites, using DNase I footprinting.
# (§3) The target sites and their complements are identified in bold underline.
# (§4) The resulting duplexes were ligated to the large pUC19 XbaI/Pstl restriction fragment. […] (Sambrook et al., ibid.)
# (§5) The polyamides were allowed to equilbrate at 22° C. for 16 h.
# [8] = system: DNA sequence ACTACT; assay: Quantitative DNase I footprint titration, site ACTACT; type: binding; settings: DNase I footprinting, pH 7.0, 22° C.
# Description: as §2, §3, §4, §5
# [9] = system: DNA sequence ATTACT; assay: Quantitative DNase I footprint titration, site ATTACT; type: binding; settings: DNase I footprinting, pH 7.0, 22° C.
# Description: as §2, §3, §4, §5
# [10] = system: DNA sequence AATACT; assay: Quantitative DNase I footprint titration, site AATACT; type: binding; settings: DNase I footprinting, pH 7.0, 22° C.
# Description: as §2, §3, §4, §5
# [11] = system: DNA sequence ACTAGT; assay: Quantitative DNase I footprint titration, site ACTAGT; type: binding; settings: DNase I footprinting, pH 7.0, 22° C.
# Description: as §2, §3, §4, §5
# [12] = system: S. aureus ATCC 13709; assay: NCCLS broth microdilution MIC, S. aureus ATCC 13709; type: cell-based; settings: organism E = S. aureus ATCC 13709
# Description: as §1
# [13] = system: E. faecium ATCC 51559; assay: MIC against drug-resistant bacteria, E. faecium ATCC 51559; type: cell-based; settings: organism A = E. faecium ATCC 51559, vancomycin resistant strain (VRE)
# Description: as §1
# (§6) Further, compounds (I) are effective against drug-resistant bacteria, as evidenced by the data in Table 2 below:
# (§7) ATCC 27660 and ATCC 33591 are methycillin resistant strains of S. aureus (MRSA's). ATCC 51559 is a vancomycin resistant strain of E. faecium (VRE). ATCC 12228 is a methycillin resistant strain of S. epidermis (MRSE). ATCC 51422 is a penicillin resistant strain of S. pneumoniae.
# [14] = system: S. aureus ATCC 27660; assay: MIC against drug-resistant bacteria, S. aureus ATCC 27660; type: cell-based; settings: organism B = S. aureus ATCC 27660, methycillin resistant strain (MRSA)
# Description: as §1, §6, §7
# [15] = system: S. epidermis ATCC 12228; assay: MIC against drug-resistant bacteria, S. epidermis ATCC 12228; type: cell-based; settings: organism D = S. epidermis ATCC 12228, methycillin resistant strain (MRSE)
# Description: as §1, §6, §7
# [16] = system: S. pneumoniae ATCC 51422; assay: MIC against drug-resistant bacteria, S. pneumoniae ATCC 51422; type: cell-based; settings: organism E = S. pneumoniae ATCC 51422, penicillin resistant strain
# Description: as §1, §6, §7
# [17] = system: S. aureus ATCC 33591; assay: MIC against drug-resistant bacteria, S. aureus ATCC 33591; type: cell-based; settings: organism C = S. aureus ATCC 33591, methycillin resistant strain (MRSA)
# Description: as §1, §6, §7
Minimum Inhibitory Concentration (MIC) [1],Minimum Inhibitory Concentration (MIC) [2] [µg/mL],Minimum Inhibitory Concentration (MIC) [3],Minimum Inhibitory Concentration (MIC) [4],Minimum Inhibitory Concentration (MIC) [5],Minimum Inhibitory Concentration (MIC) [6],"Association Constant, Ka [7] [M⁻¹]","Association Constant, Ka [8] [M⁻¹]","Association Constant, Ka [9] [M⁻¹]","Association Constant, Ka [10] [M⁻¹]","Association Constant, Ka [11] [M⁻¹]",Minimum Inhibitory Concentration (MIC) [12],Minimum Inhibitoty Concentration (MIC) [13],Minimum Inhibitoty Concentration (MIC) [14],Minimum Inhibitoty Concentration (MIC) [15],Minimum Inhibitoty Concentration (MIC) [16],Minimum Inhibitoty Concentration (MIC) [17],Compound
>32 µg/mL,>32,>32 µg/mL,>32 µg/mL,>32 µg/mL,>32 µg/mL,,,,,,,,,,,,CN(C)CCCNC(=O)CCNC(=O)c1cc(NC(=O)c2cc(NC(=O)CCNC(=O)c3cc(NC(=O)c4ccc5nc(-c6cc(Br)c(Br)s6)[nH]c5c4)cn3C)cn2C)cn1C [Compound I-6]
,,,,,,3e+09,5e+08,5e+08,500000,<1e+08,,,,,,,"CN(C)CCCNC(=O)CCNC(=O)c1cc(NC(=O)c2cc(NC(=O)c3cc(NC(=O)c4nc(NC(=O)CCCNC(=O)c5cc(NC(=O)c6cc(NC(=O)c7cc(NC(=O)c8nccn8C)cn7C)cn6C)cn5C)cn4C)cn3C)cn2C)cn1C [Compound A, reference compound]"
,,,,,,1e+11,5e+09,5e+09,1e+09,<1e+08,,,,,,,CN(C)CCCNC(=O)CCNC(=O)c1cc(NC(=O)c2cc(NC(=O)c3cc(NC(=O)c4nc(NC(=O)CCCNC(=O)c5cc(NC(=O)c6cc(NC(=O)c7ccc8nc(-c9nsc(Cl)c9Cl)[nH]c8c7)cn6C)cn5C)cn4C)cn3C)cn2C)cn1C [Compound I-9]
+++ (MIC ≦4),>32,+++ (MIC ≦4),+++ (MIC ≦4),+++ (MIC ≦4),,,,,,,+++ (MIC ≦4),+++ (MIC ≦4),+++ (MIC ≦4),+++ (MIC ≦4),+++ (MIC ≦4),,Cn1cc(NC(=O)c2sccc2Cl)cc1C(=O)Nc1cc(-c2nc3ccc(C(=O)NCCN4CCOCC4)cc3[nH]2)n(C)c1 [Compound I-3]
>32 µg/mL,>32,>32 µg/mL,>32 µg/mL,+++ (MIC ≦4),"+ (MIC from 12 to 32, inclusive)",,,,,,,,,,,,Cn1cc(NC(=O)c2cc(NC(=O)c3ccc4nc(-c5sccc5Cl)[nH]c4c3)cn2C)cc1C(=O)NCCN1CCOCC1 [Compound I-4]
+++ (MIC ≦4),>32,>32 µg/mL,+++ (MIC ≦4),+++ (MIC ≦4),,,,,,,+++ (MIC ≦4),,+++ (MIC ≦4),,,,Cn1cc(NC(=O)c2ccc3nc(-c4sccc4Cl)[nH]c3c2)cc1-c1nc2ccc(C(=O)NCCN3CCOCC3)cc2[nH]1 [Compound I-1]
>32 µg/mL,>32,>32 µg/mL,>32 µg/mL,>32 µg/mL,>32 µg/mL,,,,,,,,,,,,Cn1cc(NC(=O)c2cc(NC(=O)c3ccc4nc(-c5sc6ccccc6c5Cl)[nH]c4c3)cn2C)cc1C(=O)NCCN1CCOCC1 [Compound I-5]
,,,,,,1e+11,7e+09,7e+09,7e+09,<1e+08,,,,,,,"CN(C)CCCNC(=O)CCNC(=O)c1cc(NC(=O)c2cc(NC(=O)c3cc(NC(=O)c4nc(NC(=O)CCCNC(=O)c5cc(NC(=O)c6cc(NC(=O)c7cc(NC(=O)c8nsc(NCCCN(C)C)c8Cl)cn7C)cn6C)cn5C)cn4C)cn3C)cn2C)cn1C [B, reference compound]"
,,,,,,1e+11,5e+09,5e+09,1e+09,<1e+08,,,,,,,CN(C)CCCNC(=O)CCNC(=O)c1cc(NC(=O)c2cc(NC(=O)c3cc(NC(=O)c4nc(NC(=O)CCCNC(=O)c5cc(NC(=O)c6cc(NC(=O)c7ccc8nc(-c9nccn9C)[nH]c8c7)cn6C)cn5C)cn4C)cn3C)cn2C)cn1C [Compound I-8]
,,,,,,,,,,,,+++ (MIC ≦4),+++ (MIC ≦4),+++ (MIC ≦4),+++ (MIC ≦4),+++ (MIC ≦4),Cn1cc(NC(=O)c2ccc(Cl)cc2F)cc1C(=O)Nc1cc(-c2nc3ccc(C(=O)NCCN4CCSCC4)cc3[nH]2)n(C)c1 [Compound I-14]
+++ (MIC ≦4),>32,>32 µg/mL,+++ (MIC ≦4),+++ (MIC ≦4),,,,,,,+++ (MIC ≦4),+++ (MIC ≦4),+++ (MIC ≦4),+++ (MIC ≦4),+++ (MIC ≦4),+++ (MIC ≦4),Cn1cc(NC(=O)c2ccc3nc(-c4cc(NC(=O)c5sccc5Cl)cn4C)[nH]c3c2)cc1C(=O)NCCN1CCOCC1 [Compound I-2]
,,,,,,,,,,,,+++ (MIC ≦4),+++ (MIC ≦4),+++ (MIC ≦4),+++ (MIC ≦4),+++ (MIC ≦4),Cn1cc(NC(=O)c2ccc(F)cc2F)cc1C(=O)Nc1cc(-c2nc3ccc(C(=O)NCCN4CCOCC4)cc3[nH]2)n(C)c1 [Compound I-19]
